Source: patent US11866720B2, “Transgenic or non-transgenic plants with mutated protoporphyrinogen oxidase having increased tolerance to herbicides” (priority 2013, dated 2024)
Like-named read-outs stand apart in the source and are kept apart here.

Tested on: transgenic soybean expressing mutated PPO
Type: in vivo, Glycine max
Details: T1 soybean, field
For injury (1-5 point scale) in this document: key: 1: no obvious damage (no phytotoxicity); 2: minor amount of leaf damage, plant will survive; 3: moderate amount of leaf damage, plant will survive; 4: severe amount of leaf damage, plant will survive; 5: no surviving plants - all plants dead/dying.

CC(C)N(C)S(=O)(=O)NC(=O)c1cc(-n2c(=O)cc(C(F)(F)F)n(C)c2=O)c(F)cc1Cl [Saflufenacil, saflufenacil]
Injury rating (1-5 point scale) (AmtuPPX2L_R128A_F420V (event 10), saflufenacil: treatment 1 150 g ai/ha, treatment 2 0, 7 DAT): 3 | Injury rating (1-5 point scale) (AmtuPPX2L_R128A_F420V (event 10), saflufenacil: treatment 1 300 g ai/ha, treatment 2 300 g ai/ha, 14 DAT): 3 | Injury rating (1-5 point scale) (SDS-10533 LTM382-2 AmtuPPX2L_F420L, Saflufenacil (75 gai/ha), 3 days after treatment): 2.5 | Injury rating (1-5 point scale) (SDS-10533 LTM382-2 AmtuPPX2L_F420L, Saflufenacil (150 gai/ha), 3 days after treatment): 2.5 | Injury rating (1-5 point scale) (SDS-10544 LTM382-2 AmtuPPX2L_F420L, Saflufenacil (75 gai/ha), 3 days after treatment): 2.5 | Injury rating (1-5 point scale) (SDS-10544 LTM382-2 AmtuPPX2L_F420L, Saflufenacil (150 gai/ha), 3 days after treatment): 2.5 | Injury rating (1-5 point scale) (SDS-10558 LTM382-2 AmtuPPX2L_F420L, Saflufenacil (75 gai/ha), 3 days after treatment): 2.5 | Injury rating (1-5 point scale) (SDS-10558 LTM382-2 AmtuPPX2L_F420L, Saflufenacil (150 gai/ha), 3 days after treatment): 2 | Injury rating (1-5 point scale) (SDS-10562 LTM377-1 AmtuPPX2L_dG210, Saflufenacil (75 gai/ha), 3 days after treatment): 4 | Injury rating (1-5 point scale) (SDS-10562 LTM377-1 AmtuPPX2L_dG210, Saflufenacil (150 gai/ha), 3 days after treatment): 4 | Injury rating (1-5 point scale) (SDS-10566 LTM377-1 AmtuPPX2L_dG210, Saflufenacil (75 gai/ha), 3 days after treatment): 4 | Injury rating (1-5 point scale) (SDS-10566 LTM377-1 AmtuPPX2L_dG210, Saflufenacil (150 gai/ha), 3 days after treatment): 4 | Injury rating (1-5 point scale) (SDS-10633 LTM383-1 AmtuPPX2L_F420M, Saflufenacil (75 gai/ha), 3 days after treatment): 3 | Injury rating (1-5 point scale) (SDS-10633 LTM383-1 AmtuPPX2L_F420M, Saflufenacil (150 gai/ha), 3 days after treatment): 3 | Injury rating (1-5 point scale) (SDS-10635 LTM383-1 AmtuPPX2L_F420M, Saflufenacil (75 gai/ha), 3 days after treatment): 3.5 | Injury rating (1-5 point scale) (SDS-10635 LTM383-1 AmtuPPX2L_F420M, Saflufenacil (150 gai/ha), 3 days after treatment): 3.5 | Injury rating (1-5 point scale) (SDS-10642 LTM384-1 AmtuPPX2L_R128A_F420L, Saflufenacil (75 gai/ha), 3 days after treatment): 2 | Injury rating (1-5 point scale) (SDS-10642 LTM384-1 AmtuPPX2L_R128A_F420L, Saflufenacil (150 gai/ha), 3 days after treatment): 2 | Injury rating (1-5 point scale) (SDS-10645 LTM383-1 AmtuPPX2L_F420M, Saflufenacil (75 gai/ha), 3 days after treatment): 4 | Injury rating (1-5 point scale) (SDS-10645 LTM383-1 AmtuPPX2L_F420M, Saflufenacil (150 gai/ha), 3 days after treatment): 3 | Injury rating (1-5 point scale) (SDS-10646 LTM383-1 AmtuPPX2L_F420M, Saflufenacil (75 gai/ha), 3 days after treatment): 2.5 | Injury rating (1-5 point scale) (SDS-10646 LTM383-1 AmtuPPX2L_F420M, Saflufenacil (150 gai/ha), 3 days after treatment): 2.5 | injury (1-5 point scale) (SDS-10648 AmtuPPX2L R128A_F420I, Saflufenacil 75 g ai/ha, 3 days after treatment): 2 | injury (1-5 point scale) (SDS-10648 AmtuPPX2L R128A_F420I, Saflufenacil 150 g ai/ha, 3 days after treatment): 2 | Injury rating (1-5 point scale) (SDS-10648 LTM386-1 AmtuPPX2L_R128A_F420I, Saflufenacil (75 gai/ha), 3 days after treatment): 3 | Injury rating (1-5 point scale) (SDS-10648 LTM386-1 AmtuPPX2L_R128A_F420I, Saflufenacil (150 gai/ha), 3 days after treatment): 3 | Injury rating (1-5 point scale) (SDS-10656 LTM377-1 AmtuPPX2L_dG210, Saflufenacil (75 gai/ha), 3 days after treatment): 3.5 | Injury rating (1-5 point scale) (SDS-10656 LTM377-1 AmtuPPX2L_dG210, Saflufenacil (150 gai/ha), 3 days after treatment): 3.5 | Injury rating (1-5 point scale) (SDS-10658 LTM386-1 AmtuPPX2L_R128A_F420I, Saflufenacil (75 gai/ha), 3 days after treatment): 3.5 | Injury rating (1-5 point scale) (SDS-10658 LTM386-1 AmtuPPX2L_R128A_F420I, Saflufenacil (150 gai/ha), 3 days after treatment): 3.5 | Injury rating (1-5 point scale) (SDS-10761 LTM383-1 AmtuPPX2L_F420M, Saflufenacil (75 gai/ha), 3 days after treatment): 3 | Injury rating (1-5 point scale) (SDS-10761 LTM383-1 AmtuPPX2L_F420M, Saflufenacil (150 gai/ha), 3 days after treatment): 3 | Injury rating (1-5 point scale) (SDS-10776 LTM386-1 AmtuPPX2L_R128A_F420I, Saflufenacil (75 gai/ha), 3 days after treatment): 2 | Injury rating (1-5 point scale) (SDS-10776 LTM386-1 AmtuPPX2L_R128A_F420I, Saflufenacil (150 gai/ha), 3 days after treatment): 2.5 | Injury rating (1-5 point scale) (SDS-10787 LTM384-1 AmtuPPX2L_R128A_F420L, Saflufenacil (75 gai/ha), 3 days after treatment): 3 | Injury rating (1-5 point scale) (SDS-10787 LTM384-1 AmtuPPX2L_R128A_F420L, Saflufenacil (150 gai/ha), 3 days after treatment): 2.5 | injury (1-5 point scale) (SDS-10791 AmtuPPX2L R128A_F420I, Saflufenacil 75 g ai/ha, 3 days after treatment): 2 | injury (1-5 point scale) (SDS-10791 AmtuPPX2L R128A_F420I, Saflufenacil 150 g ai/ha, 3 days after treatment): 2 | Injury rating (1-5 point scale) (SDS-10791 LTM386-1 AmtuPPX2L_R128A_F420I, Saflufenacil (75 gai/ha), 3 days after treatment): 2 | Injury rating (1-5 point scale) (SDS-10791 LTM386-1 AmtuPPX2L_R128A_F420I, Saflufenacil (150 gai/ha), 3 days after treatment): 2 | Injury rating (1-5 point scale) (SDS-10985 LTM385-1 AmtuPPX2L_R128A_F420M, Saflufenacil (75 gai/ha), 3 days after treatment): 2 | Injury rating (1-5 point scale) (SDS-10985 LTM385-1 AmtuPPX2L_R128A_F420M, Saflufenacil (150 gai/ha), 3 days after treatment): 2 | Injury rating (1-5 point scale) (SDS-10990 LTM385-1 AmtuPPX2L_R128A_F420M, Saflufenacil (75 gai/ha), 3 days after treatment): 2.5 | Injury rating (1-5 point scale) (SDS-10990 LTM385-1 AmtuPPX2L_R128A_F420M, Saflufenacil (150 gai/ha), 3 days after treatment): 2.5 | Injury rating (1-5 point scale) (SDS-10998 LTM387-1 AmtuPPX2L_R128A_F420V, Saflufenacil (75 gai/ha), 3 days after treatment): 2 | Injury rating (1-5 point scale) (SDS-10998 LTM387-1 AmtuPPX2L_R128A_F420V, Saflufenacil (150 gai/ha), 3 days after treatment): 2 | Injury rating (1-5 point scale) (SDS-11011 LTM385-1 AmtuPPX2L_R128A_F420M, Saflufenacil (75 gai/ha), 3 days after treatment): 2 | Injury rating (1-5 point scale) (SDS-11011 LTM385-1 AmtuPPX2L_R128A_F420M, Saflufenacil (150 gai/ha), 3 days after treatment): 2 | injury (1-5 point scale) (SDS-11014 AmtuPPX2L R128A_F420I, Saflufenacil 75 g ai/ha, 3 days after treatment): 2 | injury (1-5 point scale) (SDS-11014 AmtuPPX2L R128A_F420I, Saflufenacil 150 g ai/ha, 3 days after treatment): 2 | Injury rating (1-5 point scale) (SDS-11014 LTM386-1 AmtuPPX2L_R128A_F420I, Saflufenacil (75 gai/ha), 3 days after treatment): 2 | Injury rating (1-5 point scale) (SDS-11014 LTM386-1 AmtuPPX2L_R128A_F420I, Saflufenacil (150 gai/ha), 3 days after treatment): 2 | injury (1-5 point scale) (SDS-11034 AmtuPPX2L L397D_F420V, Saflufenacil 75 g ai/ha, 3 days after treatment): 2 | injury (1-5 point scale) (SDS-11034 AmtuPPX2L L397D_F420V, Saflufenacil 150 g ai/ha, 3 days after treatment): 2 | Injury rating (1-5 point scale) (SDS-11034 LTM387-1 AmtuPPX2L_R128A_F420V, Saflufenacil (75 gai/ha), 3 days after treatment): 3 | Injury rating (1-5 point scale) (SDS-11034 LTM387-1 AmtuPPX2L_R128A_F420V, Saflufenacil (150 gai/ha), 3 days after treatment): 2 | injury (1-5 point scale) (SDS-11035 AmtuPPX2L R128A_F420V, Saflufenacil 75 g ai/ha, 3 days after treatment): 2 | injury (1-5 point scale) (SDS-11035 AmtuPPX2L R128A_F420V, Saflufenacil 150 g ai/ha, 3 days after treatment): 2 | Injury rating (1-5 point scale) (SDS-11035 LTM387-1 AmtuPPX2L_R128A_F420V, Saflufenacil (75 gai/ha), 3 days after treatment): 2 | Injury rating (1-5 point scale) (SDS-11035 LTM387-1 AmtuPPX2L_R128A_F420V, Saflufenacil (150 gai/ha), 3 days after treatment): 2 | Injury rating (1-5 point scale) (SDS-11036 LTM386-1 AmtuPPX2L_R128A_F420I, Saflufenacil (75 gai/ha), 3 days after treatment): 2.5 | Injury rating (1-5 point scale) (SDS-11036 LTM386-1 AmtuPPX2L_R128A_F420I, Saflufenacil (150 gai/ha), 3 days after treatment): 2.5 | injury (1-5 point scale) (SDS-11052 AmtuPPX2L R128A_F420M, Saflufenacil 75 g ai/ha, 3 days after treatment): 2 | injury (1-5 point scale) (SDS-11052 AmtuPPX2L R128A_F420M, Saflufenacil 150 g ai/ha, 3 days after treatment): 2
